Results taken from patent publication US8975417B2, “Pyrazolopyrrolidine derivatives and their use in the treatment of disease” (Novartis AG, priority 2013, dated 2015).
Read-outs that look alike come from different tables or passages of the source.

How the values were obtained:
[1] = target: His-CREBBP (1081-1197) bromodomain (Homo sapiens (Human), UniProt Q92793); assay: AlphaScreen in-vitro binding assay for CREBBP; settings: biochemical
Procedure, shortened: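 Ni-chelate acceptor and streptavidin donor beads (45 µg/mL each, in 50 mM HEPES pH 7.5, 150 mM NaCl, 0.02% BSA) were then added for 60 min at room temperature. IC50 came from 8-point non-linear regression.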

His-Brd2(60-472) = His-Brd2(60-472) (Homo sapiens (Human), UniProt P25440); assay: TR-FRET in-vitro binding assay for BRD2; settings: biochemical
Procedure, shortened: (§1)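 Bromodomain protein (45 nM in its addition solution) and tetra-acetylated histone H4 peptide (AcK5/8/12/16; 60 nM in its addition solution) were incubated with compounds for 35 min at 30 °C in 50 mM HEPES pH 7.5, 50 mM NaCl, 0.005% Tween20, 0.1% BSA. Eu-anti-His6 plus streptavidin-allophycocyanin detection followed, with TR-FRET read-out.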

His-Brd4(44-477) = His-Brd4(44-477) (Homo sapiens (Human), UniProt O60885); assay: TR-FRET in-vitro binding assay for BRD4; settings: biochemical
Procedure, shortened: as §1

K-562 cells = assay: Cell growth inhibition assay (CellTiter-Glo), K-562; type: cell-based, human
Procedure, shortened: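 Dose-response over 3-fold dilutions from 10 μM; 0.1% DMSO control. Endpoint: CellTiter-Glo ATP signal, background-subtracted and day 0-corrected.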

His-Brd3(20-477) = His-Brd3(20-477) (Homo sapiens (Human), UniProt Q15059); assay: TR-FRET in-vitro binding assay for BRD3; settings: biochemical
Procedure, shortened: as §1

[2] = Homo sapiens, K562, read-out: K-562 TGI

His-Brd2(60-472), sequence (P25440 60-472): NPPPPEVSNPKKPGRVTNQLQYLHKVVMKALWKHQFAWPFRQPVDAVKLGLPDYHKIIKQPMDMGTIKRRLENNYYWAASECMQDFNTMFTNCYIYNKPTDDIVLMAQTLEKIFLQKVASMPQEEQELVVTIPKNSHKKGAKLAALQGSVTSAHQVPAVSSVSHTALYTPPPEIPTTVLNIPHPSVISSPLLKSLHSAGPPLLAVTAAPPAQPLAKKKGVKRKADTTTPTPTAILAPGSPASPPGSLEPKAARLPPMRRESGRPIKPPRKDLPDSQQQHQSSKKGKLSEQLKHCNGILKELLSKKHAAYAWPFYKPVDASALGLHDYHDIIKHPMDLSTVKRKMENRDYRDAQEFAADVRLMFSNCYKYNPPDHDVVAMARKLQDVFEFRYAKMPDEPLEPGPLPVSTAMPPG
His-Brd3(20-477), sequence (Q15059 20-477): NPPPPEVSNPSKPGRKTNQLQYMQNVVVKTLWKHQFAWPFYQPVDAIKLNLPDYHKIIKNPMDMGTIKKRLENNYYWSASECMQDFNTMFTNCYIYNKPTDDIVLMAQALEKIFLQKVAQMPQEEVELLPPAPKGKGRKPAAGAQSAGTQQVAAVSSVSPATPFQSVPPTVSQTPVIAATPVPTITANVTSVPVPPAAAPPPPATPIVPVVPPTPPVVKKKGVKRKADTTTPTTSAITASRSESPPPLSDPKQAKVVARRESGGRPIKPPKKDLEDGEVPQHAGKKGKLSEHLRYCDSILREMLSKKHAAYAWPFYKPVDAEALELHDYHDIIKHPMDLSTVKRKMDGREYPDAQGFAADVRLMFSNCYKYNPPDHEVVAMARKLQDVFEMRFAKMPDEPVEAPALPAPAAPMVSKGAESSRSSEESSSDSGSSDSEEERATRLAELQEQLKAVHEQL
His-CREBBP (1081-1197) bromodomain, sequence (Q92793 1081-1197): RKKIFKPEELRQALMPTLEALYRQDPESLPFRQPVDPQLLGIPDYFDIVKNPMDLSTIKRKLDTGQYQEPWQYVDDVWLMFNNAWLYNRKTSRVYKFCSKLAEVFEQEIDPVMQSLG

IC50 [1] | IC50 (His-Brd2(60-472)) | IC50 (His-Brd4(44-477)) | IC50 (His-Brd3(20-477)) | Structure (SMILES) | IC (total growth inhibition) (K-562 cells; [2]) | IC (total growth inhibition) (K-562 cells; read-out: K-562 TGI)
3.1 µM | 0.079 µM | 0.063 µM | 0.057 µM | CCc1nn(CCO)c2c1C(c1ccc(Cl)cc1)N(c1cc(C)c(=O)n(C)c1)C2=O (centres unmarked) [Example 78, 4-(4-chlorophenyl)-5-(1,5-dimethyl-6-oxo-1,6-dihydropyridin-3-yl)-3-ethyl-1-(2-hydroxyethyl)-4,5-dihydropyrrolo[3,4-c]pyrazol-6(1H)-one] | > 10 µM | –
4.3 µM | 0.14 µM | 0.11 µM | 0.13 µM | Cc1cc(N2C(=O)c3nn(C4COC4)c(C)c3C2c2ccc(Cl)cc2)cn2c(C)nnc12 (centres unmarked) [Example 136, 4-(4-chlorophenyl)-5-(3,8-dimethyl-[1,2,4]triazolo[4,3-a]pyridin-6-yl)-3-methyl-2-(oxetan-3-yl)-4,5-dihydropyrrolo[3,4-c]pyrazol-6(2H)-one] | > 10 µM | –
30 µM | 0.046 µM | 0.036 µM | 0.052 µM | Cc1cc(N2C(=O)c3c(c(CO)nn3C3CC3)C2c2ccc(Cl)cc2)cn2c(C)nnc12 (centres unmarked) [Example 131, 4-(4-chlorophenyl)-1-cyclopropyl-5-(3,8-dimethyl-[1,2,4]triazolo[4,3-a]pyridin-6-yl)-3-(hydroxymethyl)-4,5-dihydropyrrolo[3,4-c]pyrazol-6(1H)-one] | > 10 µM | –
> 37 µM | 0.035 µM | 0.027 µM | 0.037 µM | Cc1nn(-c2ccnn2C)c2c1C(c1ccc(Cl)cc1)N(c1cc(C)c3nnc(C)n3n1)C2=O (centres unmarked) [Example 114, 4-(4-chlorophenyl)-5-(3,8-dimethyl-[1,2,4]triazolo[4,3-b]pyridazin-6-yl)-3-methyl-1-(1-methyl-1H-pyrazol-5-yl)-4,5-dihydropyrrolo[3,4-c]pyrazol-6(1H)-one] | > 10 µM | –
> 37 µM | 0.059 µM | 0.049 µM | 0.077 µM | CCOC(=O)N1CC(n2nc(C)c3c2C(=O)N(c2cc(C)c4nnc(C)n4c2)C3c2ccc(Cl)cc2)C1 (centres unmarked) [Example 156, Ethyl 3-(4-(4-chlorophenyl)-5-(3,8-dimethyl-[1,2,4]triazolo[4,3-a]pyridin-6-yl)-3-methyl-6-oxo-5,6-dihydropyrrolo[3,4-c]pyrazol-1(4H)-yl)azetidine-1-carboxylate] | > 10 µM | –
8.2 µM | 0.06 µM | 0.079 µM | 0.073 µM | COc1ncccc1-n1nc(C)c2c1C(=O)N(c1cc(Cl)c(=O)n(C)c1)C2c1ccc(Cl)cc1 (centres unmarked) [Example 72, 5-(5-chloro-1-methyl-6-oxo-1,6-dihydropyridin-3-yl)-4-(4-chlorophenyl)-1-(2-methoxypyridin-3-yl)-3-methyl-4,5-dihydropyrrolo[3,4-c]pyrazol-6(1H)-one] | > 10 µM | –
2.5 µM | 0.06 µM | 0.047 µM | 0.057 µM | CCc1nn(-c2ccnn2C)c2c1C(c1ccc(Cl)cc1)N(c1cc(C)c(=O)n(C)c1)C2=O (centres unmarked) [Example 89, 4-(4-chlorophenyl)-5-(1,5-dimethyl-6-oxo-1,6-dihydropyridin-3-yl)-3-ethyl-1-(1-methyl-1H-pyrazol-5-yl)-4,5-dihydropyrrolo[3,4-c]pyrazol-6(1H)-one] | > 10 µM | –
3.9 µM | 0.17 µM | 0.21 µM | 0.28 µM | Cn1cc(N2C(=O)c3c(c(C(F)(F)F)nn3C3CC3)C2c2ccc(Cl)cc2)cc(Cl)c1=O (centres unmarked) [Example 44, 5-(5-chloro-1-methyl-6-oxo-1,6-dihydropyridin-3-yl)-4-(4-chlorophenyl)-1-cyclopropyl-3-(trifluoromethyl)-4,5-dihydropyrrolo[3,4-c]pyrazol-6(1H)-one] | > 10 µM | –
> 37 µM | 0.13 µM | 0.068 µM | 0.15 µM | CCc1nn(C)c2c1C(c1ccc(Cl)cc1)N(c1cc(OC)c3nnc(C)n3c1)C2=O (centres unmarked) [Example 105, 4-(4-chlorophenol)-3-ethyl-5-(8-methoxy-3-methyl-[1,2,4]triazolo[4,3-a]pyridin-6-yl)-1-methyl-4,5-dihydropyrrolo[3,4-c]pyrazol-6(1H)-one] | > 10 µM | –
0.65 µM | 0.025 µM | 0.024 µM | 0.028 µM | Cc1nn(C2CCC2)c2c1C(c1ccc(Cl)cc1)N(c1cc(C)c(=O)n(C)c1)C2=O (centres unmarked) [Example 94, 4-(4-chlorophenyl)-1-cyclobutyl-5-(1,5-dimethyl-6-oxo-1,6-dihydropyridin-3-yl)-3-methyl-4,5-dihydropyrrolo[3,4-c]pyrazol-6(1H)-one] | > 10 µM | –
19 µM | 0.043 µM | 0.034 µM | 0.036 µM | COc1ncccc1-n1nc(C)c2c1C(=O)N(c1cc(C)c3nnc(C)n3c1)C2c1ccc(Cl)cc1 (centres unmarked) [Example 101, 4-(4-chlorophenyl)-5-(3,8-dimethyl-[1,2,4]triazolo[4,3-a]pyridin-6-yl)-1-(2-methoxypyridin-3-yl)-3-methyl-4,5-dihydropyrrolo[3,4-c]pyrazol-6(1H)-one] | > 10 µM | –
18 µM | 0.66 µM | 0.78 µM | 0.8 µM | Cc1nn(C2CC2)c2c1C(c1cccc(C(F)(F)F)c1)N(c1cc(C)c(=O)n(C)c1)C2=O (centres unmarked) [Example 96, 1-cyclopropyl-5-(1,5-dimethyl-6-oxo-1,6-dihydropyridin-3-yl)-3-methyl-4-(3-(trifluoromethyl)phenyl)-4,5-dihydropyrrolo[3,4-c]pyrazol-6(1H)-one] | > 10 µM | –
> 37 µM | 0.33 µM | 0.3 µM | 0.27 µM | CNC(=O)n1nc(C)c2c1C(=O)N(c1cc(C)c(=O)n(C)c1)C2c1ccc(Cl)cc1 (centres unmarked) [Example 143, 4-(4-chlorophenyl)-5-(1,5-dimethyl-6-oxo-1,6-dihydropyridin-3-yl)-N,3-dimethyl-6-oxo-5,6-dihydropyrrolo[3,4-c]pyrazole-1(4H)-carboxamide] | > 10 µM | –
0.6 µM | 0.098 µM | 0.15 µM | 0.079 µM | COc1ncc(-n2nc3c(c2C)C(c2ccc(Cl)cc2)N(c2cc(Cl)c(=O)n(C)c2)C3=O)c(OC)n1 (centres unmarked) [Example 55, 5-(5-chloro-1-methyl-6-oxo-1,6-dihydropyridin-3-yl)-4-(4-chlorophenyl)-2-(2,4-dimethoxypyrimidin-5-yl)-3-methyl-4,5-dihydropyrrolo[3,4-c]pyrazol-6(2H)-one] | > 10 µM | –
6.4 µM | 0.071 µM | 0.067 µM | 0.091 µM | Cc1nn(-c2ccnn2C)c2c1C(c1ccc(Cl)cc1)N(c1cc(C)c(=O)n(C)c1)C2=O (racemic) [Example 74, 4-(4-chlorophenyl)-5-(1,5-dimethyl-6-oxo-1,6-dihydropyridin-3-yl)-3-methyl-1-(1-methyl-1H-pyrazol-5-yl)-4,5-dihydropyrrolo[3,4-c]pyrazol-6(1H)-one] | – | >10 µM
> 37 µM | 0.018 µM | 0.012 µM | 0.014 µM | Cc1nn(C2CC2)c2c1C(c1ccc(Cl)cc1)N(c1cc(C)c3nnn(C)c3n1)C2=O (centres unmarked) [Example 110, 4-(4-chlorophenyl)-1-cyclopropyl-5-(3,7-dimethyl-3H-[1,2,3]triazolo[4,5-b]pyridin-5-yl)-3-methyl-4,5-dihydropyrrolo[3,4-c]pyrazol-6(1H)-one] | > 10 µM | –
12 µM | 0.042 µM | 0.04 µM | 0.045 µM | Cc1nn(C[C@H](O)C(F)(F)F)c2c1[C@@H](c1ccc(Cl)cc1)N(c1cc(C)c3nnc(C)n3c1)C2=O [Example 167, (R)-4-(4-chlorophenyl)-5-(3,8-dimethyl-[1,2,4]triazolo[4,3-a]pyridin-6-yl)-3-methyl-1-((S)-3,3,3-trifluoro-2-hydroxypropyl)-4,5-dihydropyrrolo[3,4-c]pyrazol-6(1H)-one] | > 10 µM | –
> 37 µM | 2.9 µM | 2.2 µM | 4.4 µM | CCc1nn(C2CC2)c2c1[C@H](c1ccc(Cl)cc1)N(c1cc(C)c3nnc(C)n3c1)C2=O [Example 106, (S)-4-(4-chlorophenyl)-1-cyclopropyl-5-(3,8-dimethyl-[1,2,4]triazolo[4,3-a]pyridin-6-yl)-3-ethyl-4,5-dihydropyrrolo[3,4-c]pyrazol-6(1H)-one] | > 10 µM | –

Structure (SMILES) | IC50 [1] | IC50 (His-Brd2(60-472)) | IC50 (His-Brd4(44-477)) | IC50 (His-Brd3(20-477)) | IC (total growth inhibition) (K-562 cells; [2]) | IC (total growth inhibition) (K-562 cells; read-out: K-562 TGI)
Cc1nn(C2CN(C)C2)c2c1C(c1ccc(Cl)cc1)N(c1cc(C)c(=O)n(C)c1)C2=O (centres unmarked) [Example 140, 4-(4-chlorophenyl)-5-(1,5-dimethyl-6-oxo-1,6-dihydropyridin-3-yl)-3-methyl-1-(1-methylazetidin-3-yl)-4,5-dihydropyrrolo[3,4-c]pyrazol-6(1H)-one] | 15 µM | 0.42 µM | 0.32 µM | 0.44 µM | > 10 µM | –
